Read-outs that look alike come from different tables or passages of the source.
System: cancer cell lines
Test: Cancer cell proliferation activity (CellTiterGlo, 72 h)
Assay type: cell-based
Details: 72 h, 72 h, read-out: IC50
Summary of the method: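 Cells seeded overnight at 37 °C, then dosed with compound at 0.1% final DMSO and incubated 72 h at 37 °C (5% or 10% CO2 by medium).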

IC50 (5637 cell line (bladder)): 1000 nM
IC50 (CLS439 cell line (bladder)): > 50000 nM
IC50 (HS729 cell line (muscle)): 1360 nM
IC50 (HSS78T cell line): 820 nM
IC50 (JAR cell line (placenta)): 460 nM
IC50 (SKMELS cell line): > 50000 nM
IC50 (Homo sapiens, 22Rv1, 72 h, 22RV1 cell line (prostate)): 1570 nM
IC50 (Homo sapiens, 786-0, 72 h, 786O cell line (kidney)): 520 nM
IC50 (Homo sapiens, A204, 72 h, A204 cell line (muscle)): 290 nM
IC50 (Homo sapiens, A549, 72 h, A549 cell line): > 50000 nM
IC50 (Homo sapiens, A673, 72 h, A673 cell line (bone)): 2310 nM
IC50 (Homo sapiens, A2780, 72 h, A2780 cell line (ovary)): 1260 nM
IC50 (Homo sapiens, A-375, 72 h, A375 cell line (skin)): 260 nM
IC50 (Homo sapiens, A-431, 72 h, A431 cell line (skin)): 340 nM
IC50 (Homo sapiens, ACHN, ACHN cell line (kidney)): 3300 nM
IC50 (Homo sapiens, ASPC1, 72 h, ASPC1 cell line (pancreas)): 420 nM
IC50 (Homo sapiens, BT-20, 72 h, BT20 cell line (breast)): 520 nM
IC50 (Homo sapiens, BXPC-3, 72 h, BXPC3 cell line (pancreas)): > 50000 nM
IC50 (Homo sapiens, C-33-A, C33A cell line (cervical)): 1790 nM
IC50 (Homo sapiens, CAKI-1, 72 h, CAKI1 cell line (kidney)): 30 nM
IC50 (Homo sapiens, COLO 205, 72 h, COLO205 cell line (colon)): 1300 nM
IC50 (Homo sapiens, COLO-678, 72 h, COLO678 cell line (colon)): 5810 nM
IC50 (Homo sapiens, Ca-Ski, CASKI cell line (cervical)): 260 nM
IC50 (Homo sapiens, Caco-2, 72 h, CACO2 cell line (colon)): 720 nM
IC50 (Homo sapiens, Calu-6, 72 h, CALU6 cell line (lung)): 610 nM
IC50 (Homo sapiens, DLD-1, 72 h, DLD1 cell line (colon)): 1980 nM
IC50 (Homo sapiens, DU-145, 72 h, DU145 cell line (prostate)): 120 nM
IC50 (Homo sapiens, EFO-21, 72 h, EFO21 cell line (ovary)): 570 nM
IC50 (Homo sapiens, EJ-28, 72 h, EJ28 cell line (bladder)): 560 nM
IC50 (Homo sapiens, Granta-519, 72 h, GRANTA-519 cell line (hematological)): 1030 nM
IC50 (Homo sapiens, HCT-15, 72 h, HCT15 cell line (colon)): 1810 nM
IC50 (Homo sapiens, HCT-116, 72 h, HCT116 cell line (colon)): 930 nM
IC50 (Homo sapiens, HEK293, 72 h, HEK293 cell line (kidney)): 740 nM
IC50 (Homo sapiens, HL-60, 72 h, HL-60 cell line (hematological)): 520 nM
IC50 (Homo sapiens, HT-29, 72 h, HT29 cell line (colon)): 420 nM
IC50 (Homo sapiens, HT-1080, 72 h, HT1080 cell line (connective tissue)): > 50000 nM
IC50 (Homo sapiens, HeLa, HELA cell line (cervical)): 550 nM
IC50 (Homo sapiens, HepG2, 72 h, HEPG2 cell line (liver)): 790 nM
IC50 (Homo sapiens, IGROV-1, 72 h, IGROV1 cell line (ovary)): 430 nM
IC50 (Homo sapiens, IMR-90, 72 h, IMR.90 cell line): 910 nM
IC50 (Homo sapiens, J82, 72 h, J82 cell line (bladder)): 540 nM
IC50 (Homo sapiens, JEG-3, 72 h, JEG3 cell line (placenta)): 370 nM
IC50 (Homo sapiens, JIMT-1, 72 h, JIMT1 cell line (breast)): 70 nM
IC50 (Homo sapiens, K562, 72 h, K-562 cell line (hematological)): > 50000 nM
IC50 (Homo sapiens, Kasumi 1, 72 h, KASUMI-1 cell line (hematological)): 60 nM
IC50 (Homo sapiens, L-363, 72 h, L-363 cell line (hematological)): 690 nM
IC50 (Homo sapiens, LoVo, LOVO cell line (colon)): 260 nM
IC50 (Homo sapiens, MCF7, 72 h, MCF7 cell line (breast)): > 50000 nM
IC50 (Homo sapiens, MDA-MB-231, 72 h, MDAMB231 cell line (breast)): 2690 nM
IC50 (Homo sapiens, MDA-MB-435, 72 h, MDAMB435 cell line (skin)): 1250 nM
IC50 (Homo sapiens, MDA-MB-436, 72 h, MDAMB436 cell line (breast)): 250 nM
IC50 (Homo sapiens, MDA-MB-468, 72 h, MDAMB468 cell line (breast)): 790 nM
IC50 (Homo sapiens, MG-63, 72 h, MG63 cell line (bone)): > 50000 nM
IC50 (Homo sapiens, MHH-ES-1, 72 h, MHHES1 cell line (bone)): 860 nM
IC50 (Homo sapiens, MIA PaCa-2, 72 h, MIAPACA2 cell line (pancreas)): > 50000 nM
IC50 (Homo sapiens, MINO, MINO cell line (hematological)): 120 nM
IC50 (Homo sapiens, MV4-11, 72 h, MV4-11 cell line (hematological)): 70 nM
IC50 (Homo sapiens, NCI-H23, 72 h, NCI-H23 cell line (lung)): 480 nM
IC50 (Homo sapiens, NCI-H82, 72 h, NCIH82 cell line (lung)): 610 nM
IC50 (Homo sapiens, NCI-H292, 72 h, NCIH292 cell line (lung)): 5310 nM
IC50 (Homo sapiens, NCI-H460, 72 h, NCIH460 cell line (lung)): 620 nM
IC50 (Homo sapiens, OVCAR-3, 72 h, OVCAR3 cell line (ovary)): 140 nM
IC50 (Homo sapiens, OVCAR-4, 72 h, OVCAR4 cell line (ovary)): 740 nM
IC50 (Homo sapiens, PANC-1, 72 h, PANC1 cell line (pancreas)): > 50000 nM
IC50 (Homo sapiens, PC-3, 72 h, PC3 cell line (prostate)): 1090 nM
IC50 (Homo sapiens, PLC-PRF-5, 72 h, PLCPRF5 cell line (liver)): 2160 nM
IC50 (Homo sapiens, Panc1005, 72 h, PANC1005 cell line (pancreas)): 240 nM
IC50 (Homo sapiens, RD, RD cell line (muscle)): 2320 nM
IC50 (Homo sapiens, Ramos, RAMOS cell line (hematological)): 560 nM
IC50 (Homo sapiens, SAOS-2, 72 h, SAOS2 cell line (bone)): 270 nM
IC50 (Homo sapiens, SF-268, 72 h, SF268 cell line (brain)): > 50000 nM
IC50 (Homo sapiens, SF-295, 72 h, SF295 cell line (brain)): 1940 nM
IC50 (Homo sapiens, SK-BR-3, 72 h, SKBR3 cell line (breast)): 100 nM
IC50 (Homo sapiens, SK-HEP1, 72 h, SKHEP1 cell line (liver)): 4780 nM
IC50 (Homo sapiens, SK-LMS-1, 72 h, SKLMS1 cell line (uterus)): 600 nM
IC50 (Homo sapiens, SK-MEL-28, 72 h, SKMEL28 cell line (skin)): 1180 nM
IC50 (Homo sapiens, SK-N-AS, SKNAS cell line (brain)): 780 nM
IC50 (Homo sapiens, SK-N-SH, SKNSH cell line (brain)): 640 nM
IC50 (Homo sapiens, SK-OV-3, 72 h, SKOV3 cell line (ovary)): 1030 nM
IC50 (Homo sapiens, SNB-75, 72 h, SNB75 cell line (brain)): 2600 nM
IC50 (Homo sapiens, SU-DHL10, 72 h, SU-DHL-10 cell line (hematological)): 460 nM
IC50 (Homo sapiens, SU-DHL-6, 72 h, SU-DHL-6 cell line (hematological)): 360 nM
IC50 (Homo sapiens, SW-620, 72 h, SW620 cell line (colon)): 570 nM
IC50 (Homo sapiens, T-24, 72 h, T24 cell line (bladder)): 920 nM
IC50 (Homo sapiens, TE-671, 72 h, TE671 cell line (muscle)): 3140 nM
IC50 (Homo sapiens, THP-1, 72 h, THP-1 cell line (hematological)): 110 nM
IC50 (Homo sapiens, U2OS, U2OS cell line (bone)): 1120 nM
IC50 (Homo sapiens, U-87 MG, U87MG cell line (brain)): 5620 nM
IC50 (Homo sapiens, UMUC3, 72 h, UMUC3 cell line (bladder)): > 50000 nM
IC50 (Homo sapiens, UO-31, 72 h, UO31 cell line (kidney)): 300 nM
IC50 (Homo sapiens, WSU-NHL, WSU-NHL cell line (hematological)): 560 nM
IC50 (MT-3, 72 h, MT3 cell line (breast)): 500 nM
IC50 (NCI-H358M, NCIH358M cell line (lung)): 300 nM
IC50 (PBMC, PBMC (hematological)): 1990 nM
IC50 (RD-ES, RDES cell line (bone)): 370 nM
Compound: C[C@]1(CO)O[C@@H](n2cnc3c(N)nc(F)nc32)C[C@@H]1O [Cpd. No. 126, (2R,3S,5R)-5-(6-amino-2-fluoro-9H-purin-9-yl)-2-(hydroxymethyl)-2-methyltetrahydrofuran-3-ol]
